In PubChem BioAssay (NCI):
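Following 48 hours of exposure in 96-well plates, responses at five concentrations were used to interpolate endpoints linearly. At the GI50, growth is halved. TGI denotes the concentration required for complete inhibition of growth.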

What was measured:
Assay in all cases: NCI-60 cell line screen, 48 h
SN12C renal = test system: SN12C renal
COLO 205 colon = test system: COLO 205 colon
UACC-257 melanoma = test system: UACC-257 melanoma
CCRF-CEM leukemia = test system: CCRF-CEM leukemia
SF-295 CNS = test system: SF-295 CNS
OVCAR-5 ovarian = test system: OVCAR-5 ovarian
MOLT-4 leukemia = test system: MOLT-4 leukemia
HOP-92 NSCLC = test system: HOP-92 NSCLC
TK-10 renal = test system: TK-10 renal

SMILES	TGI (SN12C renal)	TGI (COLO 205 colon)	TGI (UACC-257 melanoma)	TGI (CCRF-CEM leukemia)	TGI (SF-295 CNS)	TGI (OVCAR-5 ovarian)	TGI (MOLT-4 leukemia)	TGI (HOP-92 NSCLC)	TGI (TK-10 renal)	GI50 (COLO 205 colon)	GI50 (UACC-257 melanoma)	GI50 (CCRF-CEM leukemia)	GI50 (OVCAR-5 ovarian)	GI50 (MOLT-4 leukemia)	GI50 (HOP-92 NSCLC)	GI50 (TK-10 renal)
CC(=O)NC1C(OCc2ccccc2)OC(COC(=O)CCCCCNc2ccc([N+](=O)[O-])c3[nH]c4ccc(O)cc4c(=O)c23)C(O)C1OC(C)C(=O)N[C@@H](C)C(=O)N[C@H](CCC(=O)OCc1ccccc1)C(N)=O (stereo partly specified)	18.7 µM	3.25 µM	6.38 µM	> 27.2 µM	17 µM	3.81 µM	5.56 µM	3.61 µM								
C/C(=N\NS(=O)(=O)c1ccc(C)cc1)c1c(O)cc(C)oc1=O	> 100 µM		> 100 µM	> 100 µM	> 100 µM		> 100 µM	> 100 µM	> 100 µM							
C=CCCC(C)N(C(=O)OC(C)(C)C)S(=O)(=O)c1ccc(C)cc1 (stereo unspecified)	> 100 µM	> 100 µM	> 100 µM		> 100 µM	> 100 µM	> 100 µM	> 100 µM	> 100 µM							
O=C(O)CN(c1ccccc1)S(=O)(=O)c1ccc(Cl)cc1	> 100 µM	> 100 µM	> 100 µM	> 100 µM		> 100 µM	> 100 µM	> 100 µM	> 100 µM							
S=P(c1ccccc1)(c1ccccc1)C1(C2(P(=S)(c3ccccc3)c3ccccc3)CC2)CC1	> 100 µM	> 100 µM		> 100 µM	> 100 µM	> 100 µM	> 100 µM		> 100 µM							
Cc1ccc(NC(=O)CC/C(CC(=O)c2ccc(Cl)cc2)=N\NC(=O)C(=O)NN)cc1C	> 100 µM	> 100 µM	> 100 µM	> 100 µM	> 100 µM	> 100 µM	> 100 µM		> 100 µM							
COc1cccc(-c2nc(-c3ccc(NC(=O)c4ccccc4)cc3)[nH]c2-c2ccnc(Br)c2)c1		> 100 µM	> 100 µM	> 100 µM		> 100 µM	> 100 µM	> 100 µM	> 100 µM	3.55 µM	5.34 µM	3.15 µM	6.09 µM	2.7 µM	6.26 µM	6.92 µM
Cc1[nH]c2ccccc2c1C1CC(=O)NC1=O (stereo unspecified)			> 100 µM	> 100 µM	> 100 µM	> 100 µM	> 100 µM		> 100 µM							
CC1=C(/C=C/C2=CC(=C\C(=O)O)/CC(C3=C(C)CCCC3(C)C)C2)C(C)(C)CCC1 (stereo unspecified)	32.3 µM	30.7 µM	29.5 µM		22 µM	29.9 µM	21.7 µM	23.7 µM	27.3 µM							
N#Cc1ccc(-c2nc3ccc(Cl)cc3[nH]2)cc1	> 100 µM	> 100 µM		> 100 µM	> 100 µM		> 100 µM	> 100 µM								
c1ccc2c(c1)nnn2CNc1ccc(N2CCOCC2)cc1	> 100 µM	> 100 µM	> 100 µM	> 100 µM	> 100 µM		> 100 µM	> 100 µM	> 100 µM							
O=C(N/C(=C\c1ccc([N+](=O)[O-])cc1)c1nc2ccc(Cl)cc2[nH]1)c1ccccc1	41.9 µM			95.1 µM	63.8 µM	74.5 µM	54 µM	34.3 µM	88.7 µM							
CCCCCCCC(=O)OCC1OC(n2cc(F)c(=O)[nH]c2=O)C(NC(=O)OCc2ccccc2)C(OC(=O)CCCCCCC)C1O (stereo unspecified)	27.4 µM	68.3 µM	> 100 µM	66.1 µM	> 100 µM		> 100 µM	61.4 µM	> 100 µM							
CC1Cc2c(N)nc(N3CCOCC3)nc2NC1=O (stereo unspecified)	> 100 µM	> 100 µM	> 100 µM	> 100 µM	> 100 µM		> 100 µM		> 100 µM							
CC(=O)O[C@H]1CCC2[C@@H]3CCC4Nc5c(cnn5-c5ccccc5)C[C@]4(C)C3CC[C@@]21C (stereo partly specified)	41.4 µM	28.9 µM	23.7 µM	39.5 µM	10.7 µM	60.1 µM	33.7 µM		50.3 µM							
O=C1NC(=O)C(=O)C(c2nc3ccccc3s2)C1=O	> 100 µM	> 100 µM	> 100 µM	> 100 µM	> 100 µM		> 100 µM	> 100 µM	> 100 µM							
CCN(CC)C(=O)CNC(=O)OC(C)(C)C	> 100 µM		> 100 µM	> 100 µM	> 100 µM	> 100 µM	> 100 µM	> 100 µM	> 100 µM							
O=C(COc1ccc(Cl)cc1)N1N=C(c2ccc([N+](=O)[O-])o2)CC1(O)c1ccccc1 (stereo unspecified)	15.8 µM	14.8 µM	15.6 µM		22.6 µM	29.7 µM	47.3 µM	37.7 µM	20.6 µM							
CC(Oc1ccc(OCC2CCCCC2)cc1)C(=O)O (stereo unspecified)	> 100 µM		> 100 µM	> 100 µM	> 100 µM		> 100 µM		> 100 µM							
CCOC(=O)CNC1C(NC(C)=O)C(OC)OC2COC(c3ccccc3)OC21 (stereo unspecified)	> 100 µM	> 100 µM	> 100 µM	> 100 µM	> 100 µM	> 100 µM		> 100 µM	> 100 µM							
